ChEMBL document CHEMBL1201862, “PubChem BioAssay data set” (2004)
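Grown in 96-well plates, cells were treated for 48 hours with each compound at five concentrations. Insufficient inhibition: endpoint recorded as highest concentration tested. Here, GI50 denotes the concentration required for 50% inhibition of growth.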 Activity calls are given as the source filed them. Rule as the data show it: active = GI50 up to about 1.1 µM and inactive = higher.

Experiments:
Assay in all cases: growth of human tumour cells (NCI), 48 h
EKVX = system: EKVX
KM12 = system: KM12
T47D = system: T47D
NCI-H522 = system: NCI-H522
MOLT-4 = system: MOLT-4
OVCAR-5 = system: OVCAR-5
IGROV-1 = system: IGROV-1
OVCAR-8 = system: OVCAR-8
K562 = system: K562
SW-620 = system: SW-620
SK-OV-3 = system: SK-OV-3
Hs-578T = system: Hs-578T
MDA-MB-231 = system: MDA-MB-231
SNB-75 = system: SNB-75
COLO 205 = system: COLO 205
UACC-62 = system: UACC-62
HCT-15 = system: HCT-15
HL-60 = system: HL-60
NCI-H226 = system: NCI-H226
TK-10 = system: TK-10
PC-3 = system: PC-3
RPMI-8226 = system: RPMI-8226
SK-MEL-2 = system: SK-MEL-2
HOP-62 = system: HOP-62
NCI-H23 = system: NCI-H23
SR = system: SR
UO-31 = system: UO-31
BT-549 = system: BT-549
MDA-N = system: MDA-N
786-0 = system: 786-0
LOX IMVI = system: LOX IMVI
NCI-H460 = system: NCI-H460
UACC-257 = system: UACC-257
SN12C = system: SN12C
HCT-116 = system: HCT-116
U-251 = system: U-251
HOP-92 = system: HOP-92
M14 = system: M14
OVCAR-3 = system: OVCAR-3
CCRF-CEM = system: CCRF-CEM
A498 = system: A498
SF-268 = system: SF-268
SF-539 = system: SF-539
SF-295 = system: SF-295
DU-145 = system: DU-145
NCI/ADR-RES = system: NCI/ADR-RES
ACHN = system: ACHN
MDA-MB-435 = system: MDA-MB-435
CAKI-1 = system: CAKI-1
MCF7 = system: MCF7
OVCAR-4 = system: OVCAR-4
RXF 393 = system: RXF 393
HCC 2998 = system: HCC 2998
SNB-19 = system: SNB-19
SK-MEL-5 = system: SK-MEL-5
SK-MEL-28 = system: SK-MEL-28
A549 = system: A549
HT-29 = system: HT-29
Malme-3M = system: Malme-3M

`C#CCCOC(=O)CC1=C(C)/C(=C/c2ccc([S+](C)[O-])cc2)c2ccc(F)cc21` (stereo not given) was tested, and the GI50 (EKVX) was 22.8 µM (inactive), the GI50 (KM12) was 10.8 µM (inactive) and the GI50 (T47D) was 20.1 µM (inactive). The GI50 (NCI-H522) was 17.3 µM (inactive), the GI50 (MOLT-4) was 17.5 µM (inactive) and the GI50 (OVCAR-5) was 34.2 µM (inactive). The GI50 (IGROV-1) was 20.8 µM (inactive), the GI50 (OVCAR-8) was 19.7 µM (inactive) and the GI50 (K562) was 13.2 µM (inactive). For the same molecule, the GI50 (SW-620) was 14.3 µM (inactive), the GI50 (SK-OV-3) was 37 µM (inactive) and the GI50 (Hs-578T) was 13.5 µM (inactive). The GI50 (MDA-MB-231) was 8.49 µM (inactive), the GI50 (SNB-75) was 16.3 µM (inactive) and the GI50 (COLO 205) was 15.2 µM (inactive). The GI50 (UACC-62) was 13.6 µM (inactive), the GI50 (HCT-15) was 12.9 µM and the GI50 (HL-60) was 5.79 µM (inactive). For the same molecule, the GI50 (NCI-H226) was 19 µM (inactive), the GI50 (TK-10) was 28.3 µM (inactive) and the GI50 (PC-3) was 11.3 µM (inactive). The GI50 (RPMI-8226) was 11 µM (inactive), the GI50 (SK-MEL-2) was 15.7 µM (inactive) and the GI50 (HOP-62) was 27.2 µM (inactive). The GI50 (NCI-H23) was 22.2 µM (inactive), the GI50 (SR) was 3.47 µM (inactive) and the GI50 (UO-31) was 15.5 µM (inactive). For the same molecule, the GI50 (BT-549) was 13.8 µM (inactive), the GI50 (MDA-N) was 6.67 µM (inactive) and the GI50 (786-0) was 19.8 µM (inactive). For the same molecule, the GI50 (LOX IMVI) was 14.9 µM (inactive), the GI50 (NCI-H460) was 18 µM (inactive) and the GI50 (UACC-257) was 15.7 µM (inactive). The GI50 (SN12C) was 19.5 µM (inactive), the GI50 (HCT-116) was 16.8 µM (inactive) and the GI50 (U-251) was 15 µM (inactive). For the same molecule, the GI50 (HOP-92) was 12.6 µM (inactive), the GI50 (M14) was 16.2 µM (inactive) and the GI50 (OVCAR-3) was 15.4 µM (inactive). For the same molecule, the GI50 (CCRF-CEM) was 15 µM (inactive), the GI50 (A498) was 10.6 µM (inactive) and the GI50 (SF-268) was 20.6 µM (inactive). For the same molecule, the GI50 (SF-539) was 16.2 µM (inactive), the GI50 (SF-295) was 13.9 µM (inactive) and the GI50 (DU-145) was 17.2 µM (inactive). For the same molecule, the GI50 (NCI/ADR-RES) was 13.3 µM (inactive), the GI50 (ACHN) was 19.7 µM (inactive) and the GI50 (MDA-MB-435) was 4.67 µM (inactive). The GI50 (CAKI-1) was 6.19 µM (inactive), the GI50 (MCF7) was 19.4 µM (inactive) and the GI50 (OVCAR-4) was 19.2 µM (inactive). For the same molecule, the GI50 (RXF 393) was 21.4 µM (inactive), the GI50 (HCC 2998) was 10.4 µM (inactive) and the GI50 (SNB-19) was 13.6 µM (inactive). The GI50 (SK-MEL-5) was 12.3 µM (inactive).
With `COc1cc(/C=C/C(=O)N[C@@H]2C(=O)N3[C@@H]2SC(C)(C)[C@@H]3C(=O)O)ccc1O` the GI50 (EKVX) was > 100 µM (inactive), the GI50 (KM12) was > 100 µM (inactive) and the GI50 (T47D) was > 100 µM (inactive). For the same molecule, the GI50 (NCI-H522) was > 100 µM (inactive), the GI50 (MOLT-4) was > 100 µM (inactive) and the GI50 (OVCAR-5) was > 100 µM (inactive). For the same molecule, the GI50 (OVCAR-8) was > 100 µM (inactive), the GI50 (K562) was > 100 µM (inactive) and the GI50 (SK-MEL-28) was > 100 µM (inactive). For the same molecule, the GI50 (SW-620) was > 100 µM (inactive), the GI50 (SK-OV-3) was > 100 µM (inactive) and the GI50 (Hs-578T) was > 100 µM (inactive). The GI50 (MDA-MB-231) was > 100 µM (inactive), the GI50 (SNB-75) was > 100 µM (inactive) and the GI50 (COLO 205) was > 100 µM (inactive). For the same molecule, the GI50 (UACC-62) was > 100 µM (inactive), the GI50 (HCT-15) was over 100 µM and the GI50 (HL-60) was > 100 µM (inactive). For the same molecule, the GI50 (NCI-H226) was > 100 µM (inactive), the GI50 (TK-10) was > 100 µM (inactive) and the GI50 (PC-3) was > 100 µM (inactive). The GI50 (RPMI-8226) was > 100 µM (inactive), the GI50 (SK-MEL-2) was > 100 µM (inactive) and the GI50 (HOP-62) was > 100 µM (inactive). For the same molecule, the GI50 (NCI-H23) was > 100 µM (inactive), the GI50 (SR) was > 100 µM (inactive) and the GI50 (UO-31) was > 100 µM (inactive). For the same molecule, the GI50 (BT-549) was > 100 µM (inactive), the GI50 (MDA-N) was > 100 µM (inactive) and the GI50 (786-0) was > 100 µM (inactive). The GI50 (LOX IMVI) was 75 µM (inactive), the GI50 (NCI-H460) was > 100 µM (inactive) and the GI50 (UACC-257) was > 100 µM (inactive). The GI50 (SN12C) was > 100 µM (inactive), the GI50 (HCT-116) was > 100 µM (inactive) and the GI50 (U-251) was > 100 µM (inactive). The GI50 (HOP-92) was > 100 µM (inactive), the GI50 (A549) was > 100 µM (inactive) and the GI50 (M14) was > 100 µM (inactive). The GI50 (OVCAR-3) was > 100 µM (inactive), the GI50 (CCRF-CEM) was > 100 µM (inactive) and the GI50 (A498) was > 100 µM (inactive). The GI50 (SF-268) was > 100 µM (inactive), the GI50 (SF-539) was > 100 µM (inactive) and the GI50 (HT-29) was > 100 µM (inactive). For the same molecule, the GI50 (SF-295) was > 100 µM (inactive), the GI50 (DU-145) was > 100 µM (inactive) and the GI50 (NCI/ADR-RES) was > 100 µM (inactive). For the same molecule, the GI50 (ACHN) was > 100 µM (inactive), the GI50 (MDA-MB-435) was > 100 µM (inactive) and the GI50 (CAKI-1) was > 100 µM (inactive). For the same molecule, the GI50 (MCF7) was > 100 µM (inactive), the GI50 (OVCAR-4) was > 100 µM (inactive) and the GI50 (RXF 393) was > 100 µM (inactive). For the same molecule, the GI50 (HCC 2998) was > 100 µM (inactive), the GI50 (SNB-19) was > 100 µM (inactive) and the GI50 (SK-MEL-5) was > 100 µM (inactive).
In the case of `COc1cccc2cc(C(=O)O)c(=O)oc12`, the GI50 (EKVX) is reported as > 100 µM (inactive), the GI50 (KM12) is reported as > 100 µM (inactive) and the GI50 (T47D) is reported as > 100 µM (inactive). The GI50 (NCI-H522) was > 100 µM (inactive), the GI50 (MOLT-4) was > 100 µM (inactive) and the GI50 (OVCAR-5) was > 100 µM (inactive). For the same molecule, the GI50 (IGROV-1) was > 100 µM (inactive), the GI50 (OVCAR-8) was > 100 µM (inactive) and the GI50 (K562) was > 100 µM (inactive). The GI50 (SK-MEL-28) was > 100 µM (inactive), the GI50 (SW-620) was > 100 µM (inactive) and the GI50 (Hs-578T) was > 100 µM (inactive). The GI50 (MDA-MB-231) was > 100 µM (inactive), the GI50 (SNB-75) was > 100 µM (inactive) and the GI50 (COLO 205) was > 100 µM (inactive). For the same molecule, the GI50 (UACC-62) was 63.7 µM (inactive), the GI50 (HCT-15) was over 100 µM and the GI50 (HL-60) was > 100 µM (inactive). The GI50 (Malme-3M) was > 100 µM (inactive), the GI50 (NCI-H226) was > 100 µM (inactive) and the GI50 (TK-10) was > 100 µM (inactive). For the same molecule, the GI50 (PC-3) was > 100 µM (inactive), the GI50 (RPMI-8226) was > 100 µM (inactive) and the GI50 (SK-MEL-2) was > 100 µM (inactive). For the same molecule, the GI50 (HOP-62) was > 100 µM (inactive), the GI50 (NCI-H23) was > 100 µM (inactive) and the GI50 (SR) was > 100 µM (inactive). The GI50 (UO-31) was > 100 µM (inactive), the GI50 (BT-549) was > 100 µM (inactive) and the GI50 (MDA-N) was > 100 µM (inactive). For the same molecule, the GI50 (786-0) was > 100 µM (inactive), the GI50 (LOX IMVI) was > 100 µM (inactive) and the GI50 (NCI-H460) was > 100 µM (inactive). For the same molecule, the GI50 (UACC-257) was > 100 µM (inactive), the GI50 (SN12C) was > 100 µM (inactive) and the GI50 (HCT-116) was > 100 µM (inactive). The GI50 (U-251) was > 100 µM (inactive), the GI50 (HOP-92) was > 100 µM (inactive) and the GI50 (A549) was > 100 µM (inactive). For the same molecule, the GI50 (M14) was > 100 µM (inactive), the GI50 (OVCAR-3) was > 100 µM (inactive) and the GI50 (CCRF-CEM) was > 100 µM (inactive). For the same molecule, the GI50 (A498) was > 100 µM (inactive), the GI50 (SF-268) was > 100 µM (inactive) and the GI50 (SF-539) was > 100 µM (inactive). For the same molecule, the GI50 (HT-29) was > 100 µM (inactive), the GI50 (SF-295) was > 100 µM (inactive) and the GI50 (DU-145) was > 100 µM (inactive). For the same molecule, the GI50 (NCI/ADR-RES) was > 100 µM (inactive), the GI50 (ACHN) was > 100 µM (inactive) and the GI50 (MDA-MB-435) was > 100 µM (inactive). The GI50 (CAKI-1) was > 100 µM (inactive), the GI50 (MCF7) was > 100 µM (inactive) and the GI50 (OVCAR-4) was > 100 µM (inactive). For the same molecule, the GI50 (RXF 393) was > 100 µM (inactive), the GI50 (HCC 2998) was > 100 µM (inactive) and the GI50 (SNB-19) was > 100 µM (inactive). For the same molecule, the GI50 (SK-MEL-5) was > 100 µM (inactive).
